Laboratory results published in patent publication US20260258050A1, “IMMUNOMODULATOR” (HITGEN INC., priority 2023, published 2026).

Target: T1, Human IL-17A (Homo sapiens, UniProt Q16552)
T1 sequence (Q16552 20-155 limits assumed): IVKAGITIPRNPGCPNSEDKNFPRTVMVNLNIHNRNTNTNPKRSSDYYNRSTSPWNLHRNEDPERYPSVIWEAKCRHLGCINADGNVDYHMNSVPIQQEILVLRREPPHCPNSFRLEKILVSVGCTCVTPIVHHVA
Assay: Inhibition of human IL-17A protein-induced GROα/CXCL1 production in HT-29 cells
Format: cell-based
Parameters: purchased R&D 317-ILB; host or cells: added exogenously to HT-29 cells
Details: 30 ng/mL human IL-17A protein, 48 h, GROα in supernatant by ELISA kit, read-out: Inhibitory IC50 of compounds on HT-29 cell GROα/CXCL1
Protocol: Experiment Example 3 Inhibition of Human IL-17A Protein-Induced GROα/CXCL1 Production in HT-29 Cells by Compounds
This assay was conducted to evaluate the ability of the compounds to inhibit human IL-17A protein-induced production of the chemokine growth-regulated oncogene alpha/C-X-C motif chemokine ligand 1 (GROα/CXCL1) in HT-29 cells.
Human colorectal adenocarcinoma epithelial HT-29 cells (Chengdu Zhongyuan Gongchuang Technology Co., Ltd.) were seeded into a 96-well plate at a density of 5×10^4 cells per well and were cultured overnight in an incubator at 37° C.
30 ng/mL of human IL-17A protein (R&D, #317-ILB) was mixed with gradient concentrations of the IL-17A small-molecule inhibitor, or with […] of a positive control IL-17A antibody (R&D, #AF-317-NA). These mixtures were incubated at 37° C. for 1 h and were then added to the plate. The mixtures were co-incubated with the HT-29 cells at 37° C. for 48 h. Thereafter, the level of GROα in the cell culture supernatant was determined using a GROα ELISA kit (Cisbio, #62HCXC1PEG).
The inhibitory activity of each compound was expressed as the half-maximal inhibitory concentration (IC50) for inhibition of GROα/CXCL1 production in HT-29 cells.

| IC50 [nM] | SMILES |
| --- | --- |
| ≤ 100 | Cc1[nH]nc2c1-c1cc(F)c(NC(=O)[C@@H](NC(=O)c3ccnn3C(C)C)C(C3CC3)C3CC3)cc1C(=O)NC(C)C2 (single isomer, unassigned) [compound 187a] |
| ≤ 100 | Cc1[nH]nc2c1-c1cc(F)c(NC(=O)[C@@H](NC(=O)c3ccnn3C(C)C)C(C3CC3)C3CC3)cc1C(=O)NC(C)C2 (single isomer, unassigned) [compound 187b] |
| 100 to 500 | Cc1c2c(nn1COCC[Si](C)(C)C)CC(=O)N(Cc1ccccc1)Cc1cc(N)c(F)cc1-2 [compound 183] |

Target: T1, Human IL-17A
Assay: IL-17A enzyme-linked immunosorbent assay (competitive ELISA, IL-17A/IL-17Ra receptor-ligand binding)
Parameters: purchased Sino Biological Inc. 12047-H07B
Details: human IL-17A coated plate, human IL-17Ra, read-out: IC50, inhibitory activity of compounds on human IL-17A
Protocol: Experimental Example 1 IL-17A Enzyme-Linked Immunosorbent Assay (ELISA)
The inhibitory effects of human IL-17A inhibitors on receptor-ligand binding were quantitatively determined by a competitive enzyme-linked immunosorbent assay (ELISA). The ELISA was performed through the following steps.
Human IL-17A (Sino Biological Inc., Cat #12047-H07B) was diluted with coating buffer (50 mM phosphate-buffered saline (PBS), pH 7.4) to give an IL-17A concentration of 0.2 μg/ml. 100 μL of the resulting solution was added to each well of a 96-well plate, and the plate was incubated at 37° C. for 30 min. In a blank group, 100 100 μL of the coating buffer was added instead of the IL-17A solution.
The plate was washed four times with 10 mM phosphate-buffered saline containing 0.05% Tween-20 (PBST, pH 7.4). 200 μL of PBST was used per well for each wash. After the final wash, the plate was tapped dry on absorbent paper.
Fresh 5% (w/v) skim milk solution was prepared before the experiment. For example, 5 g of skim milk powder (Bio-Rad, 170-6404) was completely dissolved in 100 mL of 10 mM PBST. 200 μL of the 5% (w/v) skim milk solution was added to each well, and the plate was incubated on a shaker at 25° C. for 30 min.
(S4) Preparation of 100× to-be-Tested Compound Solutions
During step (S3), the to-be-tested compound solutions were prepared, respectively. Each powdered compound was dissolved in dimethyl sulfoxide (DMSO) to reach a storage concentration of 10 mM. The to-be-tested compound solutions were then serially diluted four-fold with DMSO to obtain nine storage concentrations ranging from […].
(S6) Pre-incubation of IL-17A with to-be-tested compound solutions
89 μL of PBST and 1 μL of each of the to-be-tested compound solutions were added to each well and mixed. The plate was pre-incubated at 25° C. for 10 min. In the blank group and the control group, 1 μL of DMSO was added instead of the to-be-tested compound solutions.
(S7) Incubation with Human Interleukin-17 Receptor a (IL-17Ra)
10 μL of 16 nM human IL-17Ra (Sino Biological Inc., Cat #10895-H03H) was added, followed by incubation on a shaker at 25° C. for 30 min. The receptor solution was prepared in 10 mM PBST.
(S9) Incubation with Horseradish Peroxidase-Conjugated Antibody
100 μL of mouse anti-Fc tag horseradish peroxidase (HRP)-conjugated antibody (Sino Biological Inc., Cat #10702-MM01T-H) was added to each well. The plate was incubated on a shaker at 25° C. for 30 min. The antibody was diluted with 5% (w/v) skim milk solution at 1:5,000 (v/v).
100 μL of 3,3′,5,5′-tetramethylbenzidine (TMB) substrate solution (BD, Cat #555214) was added to each well. Substrate A and substrate B were freshly mixed at a volume ratio of 1:1 before use. The plate was incubated in the dark at 25° C. for 5-15 min.
(S12) Termination and Detection
The color reaction was terminated by addition of 2.5 M hydrochloric acid (HCl). Absorbance was measured at 450 nm using a BMG PHERStar microplate reader.
(S13) Calculation of Half-Maximal Inhibitory Concentration (IC50)
The relative percent residual activity at each compound concentration was calculated according to Equation 1. The IC50 value of each test compound was then calculated in GraphPad 6 using the equation for log(inhibitor) versus normalized response with variable slope, as shown in Equation 2.
relative percent residual activity (%)=[(absorbance of sample−absorbance of blank group)/(absorbance of control group−absorbance of blank group)]%. Equation 1: […]
The compounds prepared in the above examples were tested for IL-17A inhibitory activity according to the above method.

| IC50 [nM] | SMILES |
| --- | --- |
| ≤ 50 | Cc1[nH]nc2c1-c1cc(F)c(NC(=O)[C@@H](NC(=O)c3ccnn3C(CF)CF)C(C3CC3)C3CC3)cc1COCC2 [compound 95] |
| ≤ 50 | Cc1[nH]nc2c1-c1cc(F)c(NC(=O)[C@@H](NC(=O)c3ccnn3C3CSC3)C(C3CC3)C3CC3)cc1COCC2 [compound 112] |
| ≤ 50 | Cc1[nH]nc2c1-c1cnc(NC(=O)[C@@H](NC(=O)c3ccnn3C(C)C)C(C3CC3)C3CC3)c(F)c1COCC2 [compound 128] |
| ≤ 50 | Cc1[nH]nc2c1-c1cc(F)c(NC(=O)[C@@H](NC(=O)c3ccnn3C(C)C)C(C3CC3)C3CC3)cc1C/C=C\C2 [compound 129] |
| ≤ 50 | Cc1[nH]nc2c1-c1cnc(NC(=O)[C@@H](NC(=O)c3ccnn3C(C)C)C(C3CC3)C3CC3)cc1CN(C1CC(F)(F)C1)CC2 [compound 203] |
| ≤ 50 | Cc1[nH]nc2c1-c1cnc(NC(=O)[C@@H](NC(=O)c3ccnn3C(C)C)C(C3CC3)C3CC3)cc1CN(C(C)(C)C(F)(F)F)C(=O)C2 [compound 206] |
| ≤ 50 | Cc1[nH]nc2c1-c1cc(F)c(NC(=O)[C@@H](NC(=O)c3ccnn3C(C)C)C(C3CC3)C3CC3)cc1CN(C(C)(C)C(F)(F)F)C(=O)C2 [compound 207] |
| ≤ 50 | Cc1[nH]nc2c1-c1cnc(NC(=O)[C@@H](NC(=O)c3ccnn3C(C)C)C(C3CC3)C3CC3)cc1CN(C1(C(F)(F)F)CC1)C(=O)C2 [compound 208] |
| ≤ 50 | Cc1[nH]nc2c1-c1cc(F)c(NC(=O)[C@@H](NC(=O)c3ccnn3C(C)C)C(C3CC3)C3CC3)cc1CN(C1(C(F)(F)F)CC1)C(=O)C2 [compound 209] |
| ≤ 50 | Cc1[nH]nc2c1-c1cnc(NC(=O)[C@@H](NC(=O)c3cnnn3C(C)C)C(C3CC3)C3CC3)cc1CN(C1CC1)CC2 [compound 220] |
| ≤ 50 | C=C(F)C(=O)N[C@H](C(=O)Nc1cc2c(cn1)-c1c(n[nH]c1C)CCN(C1CC1)C2)C(C1CC1)C1CC1 [compound 224] |

Second part, the molecule before the results:

| SMILES | IC50 [nM] |
| --- | --- |
| Cc1[nH]nc2c1-c1cc(F)c(NC(=O)[C@@H](NC(=O)c3ccnn3CCOC(F)F)C(C3CC3)C3CC3)cc1COCC2 [compound 107] | ≤ 50 |
| Cc1[nH]nc2c1-c1cc(F)c(NC(=O)[C@@H](NC(=O)c3ccnc(CC(F)(F)F)c3)C(C3CC3)C3CC3)cc1COCC2 [compound 109] | 50 to 150 |
| COC(=O)N[C@H](C(=O)Nc1cc2c(cc1F)-c1c(n[nH]c1C)CCOC2)C(C1CC1)C1CC1 [compound 121] | 50 to 150 |
| Cc1[nH]nc2c1-c1cc(F)c(NC(=O)[C@@H](NC(=O)C3(F)CC3)C(C3CC3)C3CC3)cc1COCC2 [compound 122] | 50 to 150 |
| Cc1[nH]nc2c1-c1cc(F)c(NC(=O)[C@@H](NC(=O)c3ccnn3C3CC3)C(C3CC3)C3CC3)cc1CN(C)C(=O)C2 [compound 135] | ≤ 50 |
| COCCN1Cc2cc(NC(=O)[C@@H](NC(=O)c3ccnn3[C@@H](C)CO)C(C3CC3)C3CC3)c(F)cc2-c2c(n[nH]c2C)CC1=O [compound 140] | ≤ 50 |
| COCCN1Cc2cc(NC(=O)[C@@H](NC(=O)c3nonc3C)C(C3CC3)C3CC3)c(F)cc2-c2c(n[nH]c2C)CC1=O [compound 141] | ≤ 50 |
| CCn1nccc1C(=O)N[C@H](C(=O)Nc1cc2c(cc1F)-c1c(n[nH]c1C)CCN(C)C2)C(C1CC1)C1CC1 [compound 155] | 50 to 150 |
| Cc1[nH]nc2c1-c1cc(F)c(NC(=O)[C@@H](NC(=O)c3ccnn3C(C)C)C(C3CC3)C3CC3)cc1CN(C1CCC1)CC2 [compound 177] | ≤ 50 |
| Cc1[nH]nc2c1-c1cc(F)c(NC(=O)[C@@H](NC(=O)c3ccnn3C(C)C)C(C3CC3)C3CC3)cc1CN(CC#N)CC2 [compound 179] | ≤ 50 |
| Cc1[nH]nc2c1-c1cnc(NC(=O)[C@@H](NC(=O)c3ccnn3C(C)C)C(C3CC3)C3CC3)cc1CN(C(C)(C)C(F)(F)F)CC2 [compound 210] | ≤ 50 |
| Cc1[nH]nc2c1-c1cc(F)c(NC(=O)[C@@H](NC(=O)c3ccnn3C(C)C)C(C3CC3)C3CC3)cc1CN(C(C)(C)C(F)(F)F)CC2 [compound 211] | ≤ 50 |
| Cc1[nH]nc2c1-c1cnc(NC(=O)[C@@H](NC(=O)c3ccnn3C(C)C)C(C3CC3)C3CC3)cc1CN(C1(C(F)(F)F)CC1)CC2 [compound 212] | ≤ 50 |
| Cc1[nH]nc2c1-c1cc(F)c(NC(=O)[C@@H](NC(=O)c3ccnn3C(C)C)C(C3CC3)C3CC3)cc1CN(C1(C(F)(F)F)CC1)CC2 [compound 213] | ≤ 50 |
| Cc1[nH]nc2c1-c1cnc(NC(=O)[C@@H](NC(=O)/C(F)=C\C3CC3)C(C3CC3)C3CC3)cc1CN(C1CC1)CC2 [compound 221] | ≤ 50 |
| Cc1[nH]nc2c1-c1cnc(NC(=O)[C@@H](NC(=O)/C(F)=C\C(C)C)C(C3CC3)C3CC3)cc1CN(C1CC1)CC2 [compound 222] | ≤ 50 |
| CC(C)=C(F)C(=O)N[C@H](C(=O)Nc1cc2c(cn1)-c1c(n[nH]c1C)CCN(C1CC1)C2)C(C1CC1)C1CC1 [compound 223] | ≤ 50 |
| Cc1[nH]nc2c1-c1cc(F)c(NC(=O)[C@@H](NC(=O)c3cccc(-c4ccn[nH]4)c3)C(C3CC3)C3CC3)cc1COCC2 [compound 228] | ≤ 50 |
| Cc1[nH]nc2c1-c1cc(F)c(NC(=O)[C@@H](NC(=O)c3cnnn3C(C)C)C(C3CC3)C3CC3)cc1COCC2 [compound 231] | ≤ 50 |
| Cc1[nH]nc2c1-c1cnc(NC(=O)[C@@H](NC(=O)c3cnnn3C(C)C)C(C3CC3)C3CC3)cc1COCC2 [compound 243] | ≤ 50 |
| Cc1[nH]nc2c1-c1cnc(NC(=O)[C@@H](NC(=O)OC3CCC3)C(C3CC3)C3CC3)cc1COCC2 [compound 247] | 50 to 150 |
